{"source": "PubChem BioAssay AID1963850", "about": "(Molecular Pharmacology Branch, DTP, NCI, 2024)", "tested_on": "192522-019-R-J2-PDC complex tumor spheroid viability", "assay": "Anticancer human tumor 192522-019-R-J2-PDC patient-derived colon adenocarcinoma cell line growth inhibition [POLQ]", "settings": "for IC50: curve of first compound; for viability, T/C: stronger effect = lower value", "method_in_brief": "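Three-cell-type spheroids modelling solid tumor plus stroma served as the readout system; POL inhibitors were tested individually and in combination, concentration ranges set by clinical Cmax where known.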", "key": {"[1]": {"settings": "second compound 0.0316 µM, first compound 0.0316 µM"}, "[2]": {"settings": "second compound 0.0316 µM, first compound 0.1 µM"}, "[3]": {"settings": "second compound 0.0316 µM, first compound 0.316 µM"}, "[4]": {"settings": "second compound 0.0316 µM, first compound 1 µM"}, "[5]": {"settings": "second compound 0.0316 µM, first compound 3.16 µM"}, "[6]": {"settings": "second compound 0.0316 µM, first compound 10 µM"}, "[7]": {"settings": "second compound 0.1 µM, first compound 0.0316 µM"}, "[8]": {"settings": "second compound 0.1 µM, first compound 0.1 µM"}, "[9]": {"settings": "second compound 0.1 µM, first compound 0.316 µM"}, "[10]": {"settings": "second compound 0.1 µM, first compound 1 µM"}, "[11]": {"settings": "second compound 0.1 µM, first compound 3.16 µM"}, "[12]": {"settings": "second compound 0.1 µM, first compound 10 µM"}, "[13]": {"settings": "second compound 0.316 µM, first compound 0.0316 µM"}, "[14]": {"settings": "second compound 0.316 µM, first compound 0.1 µM"}, "[15]": {"settings": "second compound 0.316 µM, first compound 0.316 µM"}, "[16]": {"settings": "second compound 0.316 µM, first compound 1 µM"}, "[17]": {"settings": "second compound 0.316 µM, first compound 3.16 µM"}, "[18]": {"settings": "second compound 0.316 µM, first compound 10 µM"}, "[19]": {"settings": "second compound 1 µM, first compound 0.0316 µM"}, "[20]": {"settings": "second compound 1 µM, first compound 0.1 µM"}, "[21]": {"settings": "second compound 1 µM, first compound 0.316 µM"}, "[22]": {"settings": "second compound 1 µM, first compound 1 µM"}, "[23]": {"settings": "second compound 1 µM, first compound 3.16 µM"}, "[24]": {"settings": "second compound 1 µM, first compound 10 µM"}, "[25]": {"settings": "second compound 3.16 µM, first compound 0.0316 µM"}, "[26]": {"settings": "second compound 3.16 µM, first compound 0.1 µM"}, "[27]": {"settings": "second compound 3.16 µM, first compound 0.316 µM"}, "[28]": {"settings": "second compound 3.16 µM, first compound 1 µM"}, "[29]": {"settings": "second compound 3.16 µM, first compound 3.16 µM"}, "[30]": {"settings": "second compound 3.16 µM, first compound 10 µM"}, "[31]": {"settings": "second compound 10 µM, first compound 0.0316 µM"}, "[32]": {"settings": "second compound 10 µM, first compound 0.1 µM"}, "[33]": {"settings": "second compound 10 µM, first compound 0.316 µM"}, "[34]": {"settings": "second compound 10 µM, first compound 1 µM"}, "[35]": {"settings": "second compound 10 µM, first compound 3.16 µM"}, "[36]": {"settings": "second compound 10 µM, first compound 10 µM"}}, "data": [{"molecule": "O=C(c1cc(Cc2n[nH]c(=O)c3ccccc23)ccc1F)N1CCN(C(=O)C2CC2)CC1", "note": "+ Cc1cccc(N(C)C(=O)C2C(O)CCN2c2nc(C)cc(C(F)(F)F)c2C#N)c1;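 note: spheroids exposed to drugs for seven days before reading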;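 for viability, T/C: 100% = DMSO vehicle control viability in luminescence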", "values": [{"measurement": "IC50", "setting": "second compound 0.0316 µM", "value": "> 10", "unit": "µM"}, {"measurement": "IC50", "setting": "second compound 0.1 µM", "value": "> 10", "unit": "µM"}, {"measurement": "IC50", "setting": "second compound 0.316 µM", "value": "> 10", "unit": "µM"}, {"measurement": "IC50", "setting": "second compound 1 µM", "value": "> 10", "unit": "µM"}, {"measurement": "IC50", "setting": "second compound 3.16 µM", "value": "> 10", "unit": "µM"}, {"measurement": "IC50", "setting": "second compound 10 µM", "value": "> 10", "unit": "µM"}, {"measurement": "viability, T/C", "setting": "[1]", "value": 101, "unit": "%"}, {"measurement": "viability, T/C", "setting": "[2]", "value": 82.3, "unit": "%"}, {"measurement": "viability, T/C", "setting": "[3]", "value": 98, "unit": "%"}, {"measurement": "viability, T/C", "setting": "[4]", "value": 88.1, "unit": "%"}, {"measurement": "viability, T/C", "setting": "[5]", "value": 98.5, "unit": "%"}, {"measurement": "viability, T/C", "setting": "[6]", "value": 92.6, "unit": "%"}, {"measurement": "viability, T/C", "setting": "[7]", "value": 107, "unit": "%"}, {"measurement": "viability, T/C", "setting": "[8]", "value": 92.8, "unit": "%"}, {"measurement": "viability, T/C", "setting": "[9]", "value": 107, "unit": "%"}, {"measurement": "viability, T/C", "setting": "[10]", "value": 95.9, "unit": "%"}, {"measurement": "viability, T/C", "setting": "[11]", "value": 100, "unit": "%"}, {"measurement": "viability, T/C", "setting": "[12]", "value": 101, "unit": "%"}, {"measurement": "viability, T/C", "setting": "[13]", "value": 97.8, "unit": "%"}, {"measurement": "viability, T/C", "setting": "[14]", "value": 94.9, "unit": "%"}, {"measurement": "viability, T/C", "setting": "[15]", "value": 101, "unit": "%"}, {"measurement": "viability, T/C", "setting": "[16]", "value": 96.1, "unit": "%"}, {"measurement": "viability, T/C", "setting": "[17]", "value": 106, "unit": "%"}, {"measurement": "viability, T/C", "setting": "[18]", "value": 93.2, "unit": "%"}, {"measurement": "viability, T/C", "setting": "[19]", "value": 96.1, "unit": "%"}, {"measurement": "viability, T/C", "setting": "[20]", "value": 106, "unit": "%"}, {"measurement": "viability, T/C", "setting": "[21]", "value": 104, "unit": "%"}, {"measurement": "viability, T/C", "setting": "[22]", "value": 96.9, "unit": "%"}, {"measurement": "viability, T/C", "setting": "[23]", "value": 111, "unit": "%"}, {"measurement": "viability, T/C", "setting": "[24]", "value": 106, "unit": "%"}, {"measurement": "viability, T/C", "setting": "[25]", "value": 102, "unit": "%"}, {"measurement": "viability, T/C", "setting": "[26]", "value": 111, "unit": "%"}, {"measurement": "viability, T/C", "setting": "[27]", "value": 107, "unit": "%"}, {"measurement": "viability, T/C", "setting": "[28]", "value": 91.3, "unit": "%"}, {"measurement": "viability, T/C", "setting": "[29]", "value": 103, "unit": "%"}, {"measurement": "viability, T/C", "setting": "[30]", "value": 111, "unit": "%"}, {"measurement": "viability, T/C", "setting": "[31]", "value": 99.9, "unit": "%"}, {"measurement": "viability, T/C", "setting": "[32]", "value": 98.5, "unit": "%"}, {"measurement": "viability, T/C", "setting": "[33]", "value": 103, "unit": "%"}, {"measurement": "viability, T/C", "setting": "[34]", "value": 93.7, "unit": "%"}, {"measurement": "viability, T/C", "setting": "[35]", "value": 116, "unit": "%"}, {"measurement": "viability, T/C", "setting": "[36]", "value": 109, "unit": "%"}]}, {"molecule": "CCc1cc2c(N3CCc4c(cc(Cn5ccnc5)cc4-c4cn(C)nc4C(F)(F)F)C3=O)cc(C)nc2c(OC)n1", "note": "+ Nc1ccc(C#CCN(C(=O)Cc2ncc(C(F)(F)F)cc2C(F)(F)F)c2ccc(F)cc2)nn1", "values": [{"measurement": "IC50", "setting": "second compound 0.0316 µM", "value": "> 10", "unit": "µM"}, {"measurement": "IC50", "setting": "second compound 0.1 µM", "value": "> 10", "unit": "µM"}, {"measurement": "IC50", "setting": "second compound 0.316 µM", "value": "> 10", "unit": "µM"}, {"measurement": "IC50", "setting": "second compound 1 µM", "value": "> 10", "unit": "µM"}, {"measurement": "IC50", "setting": "second compound 3.16 µM", "value": "> 10", "unit": "µM"}, {"measurement": "IC50", "setting": "second compound 10 µM", "value": "> 10", "unit": "µM"}, {"measurement": "viability, T/C", "setting": "[1]", "value": 102, "unit": "%"}, {"measurement": "viability, T/C", "setting": "[2]", "value": 99.6, "unit": "%"}, {"measurement": "viability, T/C", "setting": "[3]", "value": 88.1, "unit": "%"}, {"measurement": "viability, T/C", "setting": "[4]", "value": 73.7, "unit": "%"}, {"measurement": "viability, T/C", "setting": "[5]", "value": 63.6, "unit": "%"}, {"measurement": "viability, T/C", "setting": "[6]", "value": 65.4, "unit": "%"}, {"measurement": "viability, T/C", "setting": "[7]", "value": 101, "unit": "%"}, {"measurement": "viability, T/C", "setting": "[8]", "value": 93.6, "unit": "%"}, {"measurement": "viability, T/C", "setting": "[9]", "value": 77.1, "unit": "%"}, {"measurement": "viability, T/C", "setting": "[10]", "value": 76.9, "unit": "%"}, {"measurement": "viability, T/C", "setting": "[11]", "value": 79.5, "unit": "%"}, {"measurement": "viability, T/C", "setting": "[12]", "value": 73.1, "unit": "%"}, {"measurement": "viability, T/C", "setting": "[13]", "value": 105, "unit": "%"}, {"measurement": "viability, T/C", "setting": "[14]", "value": 100, "unit": "%"}, {"measurement": "viability, T/C", "setting": "[15]", "value": 89.4, "unit": "%"}, {"measurement": "viability, T/C", "setting": "[16]", "value": 75.6, "unit": "%"}, {"measurement": "viability, T/C", "setting": "[17]", "value": 72.8, "unit": "%"}, {"measurement": "viability, T/C", "setting": "[18]", "value": 73.4, "unit": "%"}, {"measurement": "viability, T/C", "setting": "[19]", "value": 103, "unit": "%"}, {"measurement": "viability, T/C", "setting": "[20]", "value": 94.2, "unit": "%"}, {"measurement": "viability, T/C", "setting": "[21]", "value": 90.8, "unit": "%"}, {"measurement": "viability, T/C", "setting": "[22]", "value": 76.8, "unit": "%"}, {"measurement": "viability, T/C", "setting": "[23]", "value": 70.8, "unit": "%"}, {"measurement": "viability, T/C", "setting": "[24]", "value": 69.2, "unit": "%"}, {"measurement": "viability, T/C", "setting": "[25]", "value": 101, "unit": "%"}, {"measurement": "viability, T/C", "setting": "[26]", "value": 95.9, "unit": "%"}, {"measurement": "viability, T/C", "setting": "[27]", "value": 89.7, "unit": "%"}, {"measurement": "viability, T/C", "setting": "[28]", "value": 81.6, "unit": "%"}, {"measurement": "viability, T/C", "setting": "[29]", "value": 90.6, "unit": "%"}, {"measurement": "viability, T/C", "setting": "[30]", "value": 81.3, "unit": "%"}, {"measurement": "viability, T/C", "setting": "[31]", "value": 102, "unit": "%"}, {"measurement": "viability, T/C", "setting": "[32]", "value": 98.7, "unit": "%"}, {"measurement": "viability, T/C", "setting": "[33]", "value": 89.1, "unit": "%"}, {"measurement": "viability, T/C", "setting": "[34]", "value": 83.4, "unit": "%"}, {"measurement": "viability, T/C", "setting": "[35]", "value": 92.8, "unit": "%"}, {"measurement": "viability, T/C", "setting": "[36]", "value": 81, "unit": "%"}]}]}
